From PubChem BioAssay AID330 (DTP/NCI, 2004)
Inconclusive results and toxic doses are left out. The calls were made as follows: active = survival T/C of 150% or more; inactive = T/C below 125% in these data.

Test system: P388 leukemia ip, CD2F1 mice, survival T/C
Assay: NCI In Vivo Anticancer Drug Screen. Data for tumor model P388 Leukemia (intraperitoneal) in CD2F1 (CDF1) mice
Details: endpoint: median survival time, higher = longer survival
Method in brief: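 Mice carrying the transplanted tumor received test compound or vehicle. Survival was recorded in each group, and the value is the treated-group measurement divided by that of the vehicle-treated control group.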

[1] = dose: 25.0 mg/kg/injection, schedule: Q01DX009 (ip), vehicle: saline with Tween-80
[2] = dose: 50.0 mg/kg/injection, schedule: Q01DX009 (ip), vehicle: Klucel (hydroxypropylcellulose) (HPC)
[3] = dose: 100.0 mg/kg/injection, schedule: Q01DX009 (ip), vehicle: Klucel (hydroxypropylcellulose) (HPC)
[4] = dose: 200.0 mg/kg/injection, schedule: Q01DX009 (ip), vehicle: Klucel (hydroxypropylcellulose) (HPC)
[5] = dose: 50.0 mg/kg/injection, schedule: Q01DX005 (ip), vehicle: Klucel (hydroxypropylcellulose) (HPC)
[6] = dose: 100.0 mg/kg/injection, schedule: Q01DX005 (ip), vehicle: Klucel (hydroxypropylcellulose) (HPC)
[7] = dose: 200.0 mg/kg/injection, schedule: Q01DX005 (ip), vehicle: Klucel (hydroxypropylcellulose) (HPC)
[8] = dose: 25.0 mg/kg/injection, schedule: Q01DX005 (ip), vehicle: saline with Tween-80
[9] = dose: 50.0 mg/kg/injection, schedule: Q01DX005 (ip), vehicle: saline with Tween-80
[10] = dose: 100.0 mg/kg/injection, schedule: Q01DX005 (ip), vehicle: saline with Tween-80
[11] = dose: 200.0 mg/kg/injection, schedule: Q01DX005 (ip), vehicle: saline with Tween-80
[12] = dose: 12.5 mg/kg/injection, schedule: Q01DX005 (ip), vehicle: Klucel (hydroxypropylcellulose) (HPC)
[13] = dose: 25.0 mg/kg/injection, schedule: Q01DX005 (ip), vehicle: Klucel (hydroxypropylcellulose) (HPC)

Measured: T/C

O=C(O)c1c[n+]([O-])ccc1OCc1ccccc1
inactive: dose: 100.0 mg/kg/injection, schedule: Q04DX003 (ip), vehicle: saline 100 % of control | dose: 200.0 mg/kg/injection, schedule: Q04DX003 (ip), vehicle: saline 98 % of control | dose: 400.0 mg/kg/injection, schedule: Q04DX003 (ip), vehicle: saline 94 % of control

NNc1nncn2c1cc1ccccc12
inactive: dose: 6.25 mg/kg/injection, schedule: Q01DX009 (ip), vehicle: saline with Tween-80 98 % of control | dose: 12.5 mg/kg/injection, schedule: Q01DX009 (ip), vehicle: saline with Tween-80 95 % of control | [1] 92 % of control

CC1(O)/C=C\C=C(\CO)C2CC(C)(C)C2(O)CC1 (configuration not stated)
inactive: dose: 6625.0 micrograms/kg/injection, schedule: Q01DX005 (ip), vehicle: Klucel (hydroxypropylcellulose) (HPC) 100 % of control | dose: 13250.0 micrograms/kg/injection, schedule: Q01DX005 (ip), vehicle: Klucel (hydroxypropylcellulose) (HPC) 98 % of control | dose: 26500.0 micrograms/kg/injection, schedule: Q01DX005 (ip), vehicle: Klucel (hydroxypropylcellulose) (HPC) 94 % of control | dose: 53000.0 micrograms/kg/injection, schedule: Q01DX005 (ip), vehicle: Klucel (hydroxypropylcellulose) (HPC) 87 % of control

CS(=O)(=O)c1ccccc1NN
inactive: [2] 111 % of control | [3] 105 % of control | [4] 100 % of control

COc1ccccc1C1CC(c2ccccc2)=Nc2ccccc2S1 (configuration not stated)
inactive: [2] 96 % of control | [3] 100 % of control | [4] 101 % of control

CC1=CC=CC2=NC(=O)CCN12
inactive: dose: 100.0 mg/kg/injection, schedule: Q04DX003 (ip), vehicle: saline with Tween-80 100 % of control | dose: 200.0 mg/kg/injection, schedule: Q04DX003 (ip), vehicle: saline with Tween-80 100 % of control

COc1ccc(Cc2ccc[nH]2)cc1
inactive: dose: 100.0 mg/kg/injection, schedule: Q01DX001 (ip), vehicle: distilled water + alcohol 97 % of control | dose: 200.0 mg/kg/injection, schedule: Q01DX001 (ip), vehicle: distilled water + alcohol 97 % of control | dose: 400.0 mg/kg/injection, schedule: Q01DX001 (ip), vehicle: distilled water + alcohol 96 % of control

c1ccc(-c2cc(-c3ccccc3)o/c(=N/n3cnnc3)c2)cc1
inactive: [5] 99 % of control | [6] 89 % of control | [7] 89 % of control

COc1ccc(-c2cscc2N)cc1
inactive: dose: 60.0 mg/kg/injection, schedule: Q01DX005 (ip), vehicle: Klucel (hydroxypropylcellulose) (HPC) 114 % of control | dose: 120.0 mg/kg/injection, schedule: Q01DX005 (ip), vehicle: Klucel (hydroxypropylcellulose) (HPC) 118 % of control | dose: 240.0 mg/kg/injection, schedule: Q01DX005 (ip), vehicle: Klucel (hydroxypropylcellulose) (HPC) 97 % of control

CC(Nc1ccccc1)C(=Nc1ccccc1)Nc1ccccc1 (configuration not stated)
inactive: [5] 110 % of control | [6] 113 % of control | [7] 113 % of control

C=CC(c1ccccc1)c1cc2c(cc1OCCC)OCO2 (configuration not stated)
inactive: [5] 98 % of control | [6] 96 % of control | [7] 105 % of control

C[Si]1(C)CCCCC1
inactive: dose: 50.0 mg/kg/injection, schedule: Q01DX009 (ip), vehicle: saline 102 % of control | dose: 100.0 mg/kg/injection, schedule: Q01DX009 (ip), vehicle: saline 95 % of control | dose: 200.0 mg/kg/injection, schedule: Q01DX009 (ip), vehicle: saline 101 % of control | dose: 400.0 mg/kg/injection, schedule: Q01DX009 (ip), vehicle: saline 102 % of control

[N-]=[N+]=CC(=O)C1(c2ccccc2)OC1c1ccccc1 (configuration not stated)
inactive: [8] 91 % of control | [9] 86 % of control | [10] 94 % of control | [11] 86 % of control

S=c1[nH]nc(-c2n[nH]c3ccccc23)o1
inactive: [9] 100 % of control | [10] 100 % of control | [11] 97 % of control

Cc1oc2c(C)c3oc(=O)cc(C)c3cc2c1CCl
inactive: dose: 12.5 mg/kg/injection, schedule: Q04DX002 (ip), vehicle: saline with Tween-80 114 % of control | dose: 25.0 mg/kg/injection, schedule: Q04DX002 (ip), vehicle: saline with Tween-80 123 % of control | dose: 400.0 mg/kg/injection, schedule: Q05DX002 (ip), vehicle: saline with Tween-80 98 % of control

c1ccc(CNc2nnc3nc(-c4ccccc4)c(-c4ccccc4)nn23)cc1
inactive: [9] 117 % of control | [10] 114 % of control | [11] 105 % of control

N#CC1(N)CC2CCCCC2CC1c1ccccc1 (configuration not stated)
inactive: dose: 100.0 mg/kg/injection, schedule: Q04DX002 (ip), vehicle: saline with Tween-80 106 % of control | dose: 200.0 mg/kg/injection, schedule: Q04DX002 (ip), vehicle: saline with Tween-80 101 % of control | dose: 400.0 mg/kg/injection, schedule: Q04DX002 (ip), vehicle: saline with Tween-80 101 % of control

CC1CC[P+](C)(c2ccccc2)c2ccccc21 (configuration not stated)
inactive: dose: 6.25 mg/kg/injection, schedule: Q04DX002 (ip), vehicle: saline 100 % of control | dose: 12.5 mg/kg/injection, schedule: Q04DX002 (ip), vehicle: saline 103 % of control

Oc1cc2c3c(c1)-c1c(ccc(O)c1O)CC3NCC2 (configuration not stated)
inactive: dose: 3.13 mg/kg/injection, schedule: Q04DX003 (ip), vehicle: DMSO 99 % of control | dose: 6.25 mg/kg/injection, schedule: Q04DX003 (ip), vehicle: DMSO 103 % of control | dose: 12.5 mg/kg/injection, schedule: Q04DX003 (ip), vehicle: DMSO 109 % of control | dose: 25.0 mg/kg/injection, schedule: Q04DX003 (ip), vehicle: DMSO 110 % of control | dose: 50.0 mg/kg/injection, schedule: Q04DX003 (ip), vehicle: DMSO 117 % of control

O=[N+]([O-])c1cccc(N=Nn2cccc2)c1
inactive: [1] 100 % of control | dose: 50.0 mg/kg/injection, schedule: Q01DX009 (ip), vehicle: saline with Tween-80 100 % of control | dose: 100.0 mg/kg/injection, schedule: Q01DX009 (ip), vehicle: saline with Tween-80 109 % of control

CC(C)CC(NC(=O)C(CC(C)C)NC(=O)OCc1ccccc1)C(=O)O (configuration not stated)
inactive: [9] 100 % of control | [10] 102 % of control | [11] 94 % of control

COc1cccc(C2C(C#N)C(=O)NC(=O)C2C#N)c1 (configuration not stated)
inactive: [2] 102 % of control | [3] 100 % of control | [4] 99 % of control

O=S(=O)(NCCSSCCNS(=O)(=O)c1cccc2cccnc12)c1cccc2cccnc12
inactive: [2] 100 % of control | [3] 89 % of control | [4] 91 % of control

C[C@@H]1C[C@@H]2c3cccc4c3c(cn4CO)C[C@H]2N(C)C1
inactive: [9] 100 % of control | [10] 100 % of control | [11] 107 % of control

CN(C)CCCOc1nc2c(c(=O)n(C)c(=O)n2C)n1C (tested in a mixture with another compound)
inactive: dose: 6.25 mg/kg/injection, schedule: Q01DX005 (ip), vehicle: Klucel (hydroxypropylcellulose) (HPC) 100 % of control | [12] 106 % of control | [13] 110 % of control

NC(N)=NC(N)=Nc1ccc2c(Cl)c(Cl)ccc2c1
inactive: dose: 6.0 mg/kg/injection, schedule: Q01DX005 (ip), vehicle: saline with Tween-80 96 % of control | dose: 12.0 mg/kg/injection, schedule: Q01DX005 (ip), vehicle: saline with Tween-80 111 % of control | dose: 22.0 mg/kg/injection, schedule: Q04DX003 (ip), vehicle: saline with Tween-80 104 % of control | [8] 104 % of control | dose: 25.0 mg/kg/injection, schedule: Q04DX003 (ip), vehicle: saline with Tween-80 120 % of control | dose: 33.0 mg/kg/injection, schedule: Q04DX003 (ip), vehicle: saline with Tween-80 100 % of control | [9] 93 % of control | dose: 50.0 mg/kg/injection, schedule: Q04DX003 (ip), vehicle: saline with Tween-80 118 % of control

CCCCC(C)(C(=O)OCC)C(=O)OCC
inactive: [12] 105 % of control | [13] 105 % of control | [5] 105 % of control | [6] 105 % of control | [7] 111 % of control | dose: 400.0 mg/kg/injection, schedule: Q01DX005 (ip), vehicle: Klucel (hydroxypropylcellulose) (HPC) 105 % of control

CC(Oc1cc(Cl)c(Cl)cc1Cl)C(=O)NC(Cc1ccccc1)C(=O)O (configuration not stated)
inactive: [9] 105 % of control | [10] 109 % of control | [11] 95 % of control

NC1[N-]C(C2CCCC[N-]2)CC2CCCCC21.NC1[N-]C(C2CCCC[N-]2)CC2CCCCC21.O=[N+]([O-])O.[Cu+2] (configuration not stated)
inactive: dose: 6.25 mg/kg/injection, schedule: Q04DX002 (ip), vehicle: suspension in saline 108 % of control | dose: 12.5 mg/kg/injection, schedule: Q04DX002 (ip), vehicle: suspension in saline 109 % of control
